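Exposure lasted 48 hours, with cells grown in 96-well plates and compounds tested at five concentrations. Here, GI50 denotes the concentration required for 50% inhibition of growth.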 Calls of active or inactive are those of the source. Cut-off read from the data, not from the text of the source: active = GI50 up to about 1.1 µM and inactive = higher.
What was measured:
Experiment in all cases: NCI tumour cell line growth inhibition, 48 h
[1] = tested on: HCT-15
[2] = tested on: SW-620
[3] = tested on: MDA-MB-435
[4] = tested on: SNB-19
[5] = tested on: SK-MEL-5
[6] = tested on: CCRF-CEM
[7] = tested on: DU-145
[8] = tested on: U-251
[9] = tested on: MDA-N
[10] = tested on: SK-MEL-2
[11] = tested on: MOLT-4
[12] = tested on: UO-31
[13] = tested on: HOP-92
[14] = tested on: UACC-62
[15] = tested on: OVCAR-4
[16] = tested on: SF-268
[17] = tested on: HT-29
[18] = tested on: UACC-257
[19] = tested on: HL-60
[20] = tested on: NCI-H23
[21] = tested on: HCT-116
[22] = tested on: SN12C
[23] = tested on: Hs-578T
[24] = tested on: NCI-H522
[25] = tested on: ACHN
[26] = tested on: KM12
[27] = tested on: MDA-MB-231
[28] = tested on: COLO 205
[29] = tested on: OVCAR-8
[30] = tested on: EKVX
[31] = tested on: OVCAR-3
[32] = tested on: IGROV-1
[33] = tested on: T47D
[34] = tested on: Malme-3M
[35] = tested on: SK-OV-3
[36] = tested on: RXF 393
[37] = tested on: PC-3
[38] = tested on: 786-0
[39] = tested on: TK-10
[40] = tested on: NCI-H226
[41] = tested on: CAKI-1
[42] = tested on: M14
[43] = tested on: LOX IMVI
[44] = tested on: BT-549
[45] = tested on: SK-MEL-28
[46] = tested on: OVCAR-5
[47] = tested on: NCI/ADR-RES
[48] = tested on: SF-295
[49] = tested on: A549
[50] = tested on: HOP-62
[51] = tested on: RPMI-8226
[52] = tested on: K562
[53] = tested on: SNB-75
[54] = tested on: HCC 2998
[55] = tested on: SF-539
[56] = tested on: NCI-H460
[57] = tested on: MCF7
[58] = tested on: A498
[59] = tested on: SR

## O=S(=O)(O)c1ccc2c(/N=N/c3cccc4ccccc34)c(O)c(S(=O)(=O)O)cc2c1
[1]
  GI50: > 100 µM
[2]
  GI50: > 100 µM (inactive)
[3]
  GI50: > 100 µM (inactive)
[4]
  GI50: > 100 µM (inactive)
[5]
  GI50: > 100 µM (inactive)
[6]
  GI50: > 100 µM (inactive)
[7]
  GI50: > 100 µM (inactive)
[8]
  GI50: > 100 µM (inactive)
[9]
  GI50: > 100 µM (inactive)
[10]
  GI50: > 100 µM (inactive)
[11]
  GI50: > 100 µM (inactive)
[12]
  GI50: > 100 µM (inactive)
[13]
  GI50: > 100 µM (inactive)
[14]
  GI50: > 100 µM (inactive)
[15]
  GI50: > 100 µM (inactive)
[16]
  GI50: > 100 µM (inactive)
[17]
  GI50: > 100 µM (inactive)
[18]
  GI50: > 100 µM (inactive)
[19]
  GI50: > 100 µM (inactive)
[20]
  GI50: > 100 µM (inactive)
[21]
  GI50: > 100 µM (inactive)
[22]
  GI50: > 100 µM (inactive)
[23]
  GI50: > 100 µM (inactive)
[24]
  GI50: > 100 µM (inactive)
[25]
  GI50: > 100 µM (inactive)
[26]
  GI50: > 100 µM (inactive)
[27]
  GI50: > 100 µM (inactive)
[28]
  GI50: > 100 µM (inactive)
[29]
  GI50: > 100 µM (inactive)
[30]
  GI50: > 100 µM (inactive)
[31]
  GI50: > 100 µM (inactive)
[32]
  GI50: > 100 µM (inactive)
[33]
  GI50: > 100 µM (inactive)
[34]
  GI50: > 100 µM (inactive)
[35]
  GI50: > 100 µM (inactive)
[36]
  GI50: > 100 µM (inactive)
[37]
  GI50: > 100 µM (inactive)
[38]
  GI50: > 100 µM (inactive)
[39]
  GI50: > 100 µM (inactive)
[40]
  GI50: > 100 µM (inactive)
[41]
  GI50: > 100 µM (inactive)
[42]
  GI50: > 100 µM (inactive)
[43]
  GI50: > 100 µM (inactive)
[44]
  GI50: > 100 µM (inactive)
[45]
  GI50: > 100 µM (inactive)
[46]
  GI50: > 100 µM (inactive)
[47]
  GI50: > 100 µM (inactive)
[48]
  GI50: > 100 µM (inactive)
[49]
  GI50: > 100 µM (inactive)
[50]
  GI50: > 100 µM (inactive)
[51]
  GI50: > 100 µM (inactive)
[52]
  GI50: > 100 µM (inactive)
[53]
  GI50: > 100 µM (inactive)

## CCCCCCCCCCCCCCCCOCC(Cl)COP(=O)(O)OP(=O)(O)OCC1OC(n2cnc3c(N)ncnc32)C(O)C1O (stereo not drawn)
[1]
  GI50: > 100 µM
[2]
  GI50: > 100 µM (inactive)
[3]
  GI50: 54.7 µM (inactive)
[54]
  GI50: > 100 µM (inactive)
[4]
  GI50: > 100 µM (inactive)
[5]
  GI50: > 100 µM (inactive)
[6]
  GI50: > 100 µM (inactive)
[8]
  GI50: > 100 µM (inactive)
[9]
  GI50: 61.8 µM (inactive)
[10]
  GI50: > 100 µM (inactive)
[11]
  GI50: > 100 µM (inactive)
[12]
  GI50: 61 µM (inactive)
[13]
  GI50: 70.8 µM (inactive)
[14]
  GI50: > 100 µM (inactive)
[15]
  GI50: > 100 µM (inactive)
[16]
  GI50: > 100 µM (inactive)
[17]
  GI50: > 100 µM (inactive)
[18]
  GI50: > 100 µM (inactive)
[19]
  GI50: > 100 µM (inactive)
[20]
  GI50: > 100 µM (inactive)
[21]
  GI50: 38.1 µM (inactive)
[22]
  GI50: > 100 µM (inactive)
[23]
  GI50: 32.4 µM (inactive)
[24]
  GI50: > 100 µM (inactive)
[25]
  GI50: > 100 µM (inactive)
[26]
  GI50: 86.9 µM (inactive)
[27]
  GI50: 38.7 µM (inactive)
[28]
  GI50: > 100 µM (inactive)
[55]
  GI50: 76 µM (inactive)
[29]
  GI50: > 100 µM (inactive)
[30]
  GI50: > 100 µM (inactive)
[31]
  GI50: > 100 µM (inactive)
[56]
  GI50: 52.4 µM (inactive)
[32]
  GI50: > 100 µM (inactive)
[33]
  GI50: 84.5 µM (inactive)
[57]
  GI50: > 100 µM (inactive)
[34]
  GI50: > 100 µM (inactive)
[35]
  GI50: 68.5 µM (inactive)
[36]
  GI50: > 100 µM (inactive)
[37]
  GI50: 29.9 µM (inactive)
[38]
  GI50: > 100 µM (inactive)
[39]
  GI50: > 100 µM (inactive)
[40]
  GI50: 36.7 µM (inactive)
[41]
  GI50: > 100 µM (inactive)
[42]
  GI50: 83.6 µM (inactive)
[43]
  GI50: 75.9 µM (inactive)
[44]
  GI50: > 100 µM (inactive)
[45]
  GI50: > 100 µM (inactive)
[46]
  GI50: 50.7 µM (inactive)
[47]
  GI50: > 100 µM (inactive)
[48]
  GI50: > 100 µM (inactive)
[49]
  GI50: > 100 µM (inactive)
[50]
  GI50: > 100 µM (inactive)
[58]
  GI50: > 100 µM (inactive)
[51]
  GI50: > 100 µM (inactive)
[52]
  GI50: > 100 µM (inactive)
[53]
  GI50: 31 µM (inactive)

## CON(C)C(=O)C(Cc1ccccc1)NC(=O)OC(C)(C)C (stereo not drawn)
[59]
  GI50: > 100 µM (inactive)
[1]
  GI50: > 100 µM
[2]
  GI50: > 100 µM (inactive)
[3]
  GI50: > 100 µM (inactive)
[54]
  GI50: > 100 µM (inactive)
[4]
  GI50: > 100 µM (inactive)
[5]
  GI50: > 100 µM (inactive)
[6]
  GI50: > 100 µM (inactive)
[7]
  GI50: > 100 µM (inactive)
[8]
  GI50: > 100 µM (inactive)
[9]
  GI50: > 100 µM (inactive)
[11]
  GI50: > 100 µM (inactive)
[12]
  GI50: > 100 µM (inactive)
[13]
  GI50: > 100 µM (inactive)
[14]
  GI50: > 100 µM (inactive)
[16]
  GI50: > 100 µM (inactive)
[17]
  GI50: > 100 µM (inactive)
[18]
  GI50: > 100 µM (inactive)
[19]
  GI50: > 100 µM (inactive)
[20]
  GI50: > 100 µM (inactive)
[21]
  GI50: > 100 µM (inactive)
[22]
  GI50: > 100 µM (inactive)
[23]
  GI50: > 100 µM (inactive)
[25]
  GI50: > 100 µM (inactive)
[26]
  GI50: > 100 µM (inactive)
[28]
  GI50: > 100 µM (inactive)
[55]
  GI50: > 100 µM (inactive)
[29]
  GI50: > 100 µM (inactive)
[30]
  GI50: > 100 µM (inactive)
[31]
  GI50: > 100 µM (inactive)
[56]
  GI50: > 100 µM (inactive)
[32]
  GI50: > 100 µM (inactive)
[33]
  GI50: > 100 µM (inactive)
[57]
  GI50: > 100 µM (inactive)
[34]
  GI50: > 100 µM (inactive)
[35]
  GI50: > 100 µM (inactive)
[36]
  GI50: > 100 µM (inactive)
[37]
  GI50: > 100 µM (inactive)
[38]
  GI50: > 100 µM (inactive)
[39]
  GI50: > 100 µM (inactive)
[40]
  GI50: > 100 µM (inactive)
[42]
  GI50: > 100 µM (inactive)
[44]
  GI50: > 100 µM (inactive)
[45]
  GI50: > 100 µM (inactive)
[46]
  GI50: > 100 µM (inactive)
[47]
  GI50: > 100 µM (inactive)
[48]
  GI50: > 100 µM (inactive)
[49]
  GI50: > 100 µM (inactive)
[50]
  GI50: > 100 µM (inactive)
[58]
  GI50: > 100 µM (inactive)
[51]
  GI50: > 100 µM (inactive)
[52]
  GI50: > 100 µM (inactive)
[53]
  GI50: > 100 µM (inactive)
